ChEMBL document CHEMBL3991601, “The target landscape of clinical kinase drugs” (Science, 2017)
The source made the active and inactive calls. For most assays here, no stated cut-off is given here; in the data, actives have a measured Kd and inactives only a lower limit.

What was measured:
[1] = molecular target: T1, Very long-chain specific acyl-CoA dehydrogenase, mitochondrial (Homo sapiens, UniProt P49748)
T1 sequence (P49748 whole entry): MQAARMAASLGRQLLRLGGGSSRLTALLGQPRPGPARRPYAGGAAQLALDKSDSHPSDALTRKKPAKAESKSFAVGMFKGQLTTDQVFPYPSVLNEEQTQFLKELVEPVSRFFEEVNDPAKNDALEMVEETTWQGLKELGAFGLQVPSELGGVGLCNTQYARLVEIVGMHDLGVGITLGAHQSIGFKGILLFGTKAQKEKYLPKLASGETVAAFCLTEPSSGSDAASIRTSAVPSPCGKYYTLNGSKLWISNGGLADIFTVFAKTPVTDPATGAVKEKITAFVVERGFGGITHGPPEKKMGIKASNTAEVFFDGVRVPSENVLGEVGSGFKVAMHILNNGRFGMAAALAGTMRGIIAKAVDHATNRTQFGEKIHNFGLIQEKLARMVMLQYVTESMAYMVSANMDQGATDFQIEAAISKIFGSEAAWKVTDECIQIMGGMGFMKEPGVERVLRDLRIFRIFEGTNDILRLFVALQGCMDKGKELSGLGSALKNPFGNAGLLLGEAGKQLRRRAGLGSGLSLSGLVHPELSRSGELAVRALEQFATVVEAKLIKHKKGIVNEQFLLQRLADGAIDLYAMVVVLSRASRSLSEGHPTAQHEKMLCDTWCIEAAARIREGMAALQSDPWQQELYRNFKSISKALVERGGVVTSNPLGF

[2] = molecular target: T2, Interleukin-1 receptor-associated kinase 4 (Homo sapiens, UniProt Q9NWZ3)
T2 sequence (Q9NWZ3 whole entry): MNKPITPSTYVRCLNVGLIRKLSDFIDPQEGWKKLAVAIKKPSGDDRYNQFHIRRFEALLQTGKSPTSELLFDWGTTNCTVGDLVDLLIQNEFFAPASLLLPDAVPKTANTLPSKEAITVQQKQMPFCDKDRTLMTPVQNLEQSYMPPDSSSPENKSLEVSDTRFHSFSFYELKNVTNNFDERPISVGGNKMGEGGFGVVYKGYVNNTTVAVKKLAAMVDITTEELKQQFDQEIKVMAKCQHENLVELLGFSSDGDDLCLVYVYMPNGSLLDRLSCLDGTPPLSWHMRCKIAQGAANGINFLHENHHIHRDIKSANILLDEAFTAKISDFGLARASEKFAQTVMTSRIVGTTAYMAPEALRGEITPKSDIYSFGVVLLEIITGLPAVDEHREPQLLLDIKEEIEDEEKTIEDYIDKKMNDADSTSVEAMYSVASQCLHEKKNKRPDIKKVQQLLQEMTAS

[3] = molecular target: T3, Serine/threonine-protein kinase PLK4 (Homo sapiens, UniProt O00444)
T3 sequence (O00444 whole entry): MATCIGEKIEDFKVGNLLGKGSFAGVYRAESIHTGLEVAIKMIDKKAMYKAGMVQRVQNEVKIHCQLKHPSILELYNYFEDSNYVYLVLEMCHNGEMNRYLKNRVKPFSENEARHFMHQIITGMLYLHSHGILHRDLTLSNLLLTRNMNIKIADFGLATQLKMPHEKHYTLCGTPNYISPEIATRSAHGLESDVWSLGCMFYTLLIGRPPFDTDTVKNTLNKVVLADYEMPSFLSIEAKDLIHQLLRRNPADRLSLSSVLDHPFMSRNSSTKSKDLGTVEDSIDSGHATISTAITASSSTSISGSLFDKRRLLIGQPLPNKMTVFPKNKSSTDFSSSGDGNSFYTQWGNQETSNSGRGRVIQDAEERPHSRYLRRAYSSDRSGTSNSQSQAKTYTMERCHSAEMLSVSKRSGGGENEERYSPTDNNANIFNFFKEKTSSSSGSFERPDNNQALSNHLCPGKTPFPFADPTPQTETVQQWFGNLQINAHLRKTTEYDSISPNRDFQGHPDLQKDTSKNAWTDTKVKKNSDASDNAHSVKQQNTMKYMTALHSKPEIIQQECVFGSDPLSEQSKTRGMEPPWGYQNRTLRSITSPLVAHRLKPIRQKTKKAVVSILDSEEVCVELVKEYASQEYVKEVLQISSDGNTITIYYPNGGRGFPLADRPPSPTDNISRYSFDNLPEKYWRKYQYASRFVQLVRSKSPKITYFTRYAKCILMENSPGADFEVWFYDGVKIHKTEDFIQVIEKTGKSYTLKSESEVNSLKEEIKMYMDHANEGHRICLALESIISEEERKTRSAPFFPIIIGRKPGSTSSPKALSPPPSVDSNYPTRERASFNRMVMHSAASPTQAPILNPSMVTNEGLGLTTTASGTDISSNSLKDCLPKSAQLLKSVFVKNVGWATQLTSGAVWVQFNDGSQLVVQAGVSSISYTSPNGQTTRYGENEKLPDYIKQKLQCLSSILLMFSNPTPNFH

[4] = molecular target: Serine/threonine-protein kinase SIK3 (Homo sapiens, UniProt Q9Y2K2)
[5] = molecular target: Cyclin-dependent kinase 6 (Homo sapiens, UniProt Q00534)
[6] = molecular target: T4, Serine/threonine-protein kinase Chk1 (Homo sapiens, UniProt O14757)
T4 sequence (O14757 whole entry): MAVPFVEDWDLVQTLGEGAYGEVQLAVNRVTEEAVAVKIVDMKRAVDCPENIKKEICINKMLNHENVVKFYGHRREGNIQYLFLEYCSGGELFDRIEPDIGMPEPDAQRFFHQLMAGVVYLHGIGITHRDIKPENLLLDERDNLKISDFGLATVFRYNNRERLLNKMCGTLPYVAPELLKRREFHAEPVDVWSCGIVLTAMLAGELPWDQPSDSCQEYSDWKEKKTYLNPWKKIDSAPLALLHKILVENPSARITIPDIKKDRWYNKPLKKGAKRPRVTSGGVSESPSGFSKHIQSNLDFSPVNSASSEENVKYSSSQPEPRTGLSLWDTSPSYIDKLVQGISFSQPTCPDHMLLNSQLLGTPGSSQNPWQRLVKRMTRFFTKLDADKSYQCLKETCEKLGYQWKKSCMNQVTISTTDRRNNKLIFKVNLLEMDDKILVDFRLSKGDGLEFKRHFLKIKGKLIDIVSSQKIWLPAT

[7] = molecular target: Serine/threonine-protein kinase 10 (Homo sapiens, UniProt O94804)
[8] = molecular target: Eukaryotic translation initiation factor 2-alpha kinase 1 (Homo sapiens, UniProt Q9BQI3)
[9] = molecular target: Serine/threonine-protein kinase N2 (Homo sapiens, UniProt Q16513)
[10] = molecular target: Platelet-derived growth factor receptor beta (Homo sapiens, UniProt P09619)
[11] = molecular target: Dual specificity tyrosine-phosphorylation-regulated kinase 1A (Homo sapiens, UniProt Q13627)

Platelet-derived growth factor receptor beta, sequence (P09619 whole entry): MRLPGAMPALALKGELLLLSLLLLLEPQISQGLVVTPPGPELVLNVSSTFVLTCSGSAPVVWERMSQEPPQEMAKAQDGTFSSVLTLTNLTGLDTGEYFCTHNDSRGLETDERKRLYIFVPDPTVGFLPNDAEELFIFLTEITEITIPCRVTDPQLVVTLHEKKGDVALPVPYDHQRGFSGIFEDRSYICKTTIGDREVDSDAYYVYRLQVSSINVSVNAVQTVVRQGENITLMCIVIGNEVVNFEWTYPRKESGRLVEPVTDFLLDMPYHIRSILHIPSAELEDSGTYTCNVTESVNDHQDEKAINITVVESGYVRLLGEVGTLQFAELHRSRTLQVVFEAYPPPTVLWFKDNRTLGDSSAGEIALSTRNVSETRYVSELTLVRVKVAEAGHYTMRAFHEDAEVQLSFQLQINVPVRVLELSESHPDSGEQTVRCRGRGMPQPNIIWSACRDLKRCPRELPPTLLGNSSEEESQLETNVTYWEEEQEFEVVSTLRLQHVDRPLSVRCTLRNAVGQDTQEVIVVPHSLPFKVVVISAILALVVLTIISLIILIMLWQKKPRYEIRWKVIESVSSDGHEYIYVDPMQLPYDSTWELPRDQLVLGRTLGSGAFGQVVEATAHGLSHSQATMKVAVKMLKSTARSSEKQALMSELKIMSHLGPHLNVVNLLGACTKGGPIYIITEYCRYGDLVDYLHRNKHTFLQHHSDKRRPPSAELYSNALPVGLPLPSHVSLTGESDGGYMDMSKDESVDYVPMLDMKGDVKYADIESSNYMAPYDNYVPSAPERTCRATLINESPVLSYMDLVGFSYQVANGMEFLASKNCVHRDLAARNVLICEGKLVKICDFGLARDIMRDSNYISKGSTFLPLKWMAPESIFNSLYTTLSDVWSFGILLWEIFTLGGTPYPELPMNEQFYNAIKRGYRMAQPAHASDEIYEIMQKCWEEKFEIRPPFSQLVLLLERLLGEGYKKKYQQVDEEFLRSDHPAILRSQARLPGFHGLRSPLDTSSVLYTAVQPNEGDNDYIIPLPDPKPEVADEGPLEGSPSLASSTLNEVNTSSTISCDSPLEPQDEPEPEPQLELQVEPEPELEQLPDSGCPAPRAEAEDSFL
Eukaryotic translation initiation factor 2-alpha kinase 1, sequence (Q9BQI3 whole entry): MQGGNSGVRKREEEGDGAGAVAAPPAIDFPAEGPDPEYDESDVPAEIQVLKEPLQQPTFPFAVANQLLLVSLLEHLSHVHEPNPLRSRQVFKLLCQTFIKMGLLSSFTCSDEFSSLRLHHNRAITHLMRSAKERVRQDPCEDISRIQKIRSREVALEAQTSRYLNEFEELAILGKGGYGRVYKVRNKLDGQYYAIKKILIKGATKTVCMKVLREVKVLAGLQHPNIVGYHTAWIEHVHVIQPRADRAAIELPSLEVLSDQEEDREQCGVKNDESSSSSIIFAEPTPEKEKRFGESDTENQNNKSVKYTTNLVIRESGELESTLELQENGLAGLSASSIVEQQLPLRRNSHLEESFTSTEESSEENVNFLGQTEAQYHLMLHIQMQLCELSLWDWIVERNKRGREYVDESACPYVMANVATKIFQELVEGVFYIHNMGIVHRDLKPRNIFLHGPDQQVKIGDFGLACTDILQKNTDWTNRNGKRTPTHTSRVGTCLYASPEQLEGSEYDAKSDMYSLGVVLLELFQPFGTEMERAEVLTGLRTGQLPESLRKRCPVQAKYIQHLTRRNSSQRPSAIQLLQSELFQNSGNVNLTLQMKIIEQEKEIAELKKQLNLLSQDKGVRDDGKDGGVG
Serine/threonine-protein kinase 10, sequence (O94804 whole entry): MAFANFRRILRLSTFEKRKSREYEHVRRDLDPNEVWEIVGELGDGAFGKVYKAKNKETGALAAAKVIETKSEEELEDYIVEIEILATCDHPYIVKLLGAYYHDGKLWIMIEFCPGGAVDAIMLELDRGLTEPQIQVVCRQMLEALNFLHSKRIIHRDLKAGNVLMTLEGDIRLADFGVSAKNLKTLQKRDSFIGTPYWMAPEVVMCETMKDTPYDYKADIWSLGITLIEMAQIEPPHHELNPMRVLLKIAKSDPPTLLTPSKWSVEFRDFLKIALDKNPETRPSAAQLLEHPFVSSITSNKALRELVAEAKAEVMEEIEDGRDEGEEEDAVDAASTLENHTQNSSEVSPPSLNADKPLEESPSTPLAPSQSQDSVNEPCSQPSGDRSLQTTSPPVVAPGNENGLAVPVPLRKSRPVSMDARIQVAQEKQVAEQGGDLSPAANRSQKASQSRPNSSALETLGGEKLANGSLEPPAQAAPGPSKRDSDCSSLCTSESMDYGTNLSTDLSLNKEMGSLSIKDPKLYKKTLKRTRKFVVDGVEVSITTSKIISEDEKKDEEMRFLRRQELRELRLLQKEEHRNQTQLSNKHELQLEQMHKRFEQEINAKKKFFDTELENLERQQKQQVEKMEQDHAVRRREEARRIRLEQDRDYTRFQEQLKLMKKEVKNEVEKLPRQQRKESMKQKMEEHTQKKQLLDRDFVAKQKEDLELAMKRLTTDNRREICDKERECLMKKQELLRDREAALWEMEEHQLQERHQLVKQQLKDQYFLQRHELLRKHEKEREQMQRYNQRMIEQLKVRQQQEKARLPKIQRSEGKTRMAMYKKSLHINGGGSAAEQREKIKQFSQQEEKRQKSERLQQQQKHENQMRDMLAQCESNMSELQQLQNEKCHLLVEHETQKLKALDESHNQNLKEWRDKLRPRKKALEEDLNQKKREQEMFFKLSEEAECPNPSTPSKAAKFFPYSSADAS
Cyclin-dependent kinase 6, sequence (Q00534 whole entry): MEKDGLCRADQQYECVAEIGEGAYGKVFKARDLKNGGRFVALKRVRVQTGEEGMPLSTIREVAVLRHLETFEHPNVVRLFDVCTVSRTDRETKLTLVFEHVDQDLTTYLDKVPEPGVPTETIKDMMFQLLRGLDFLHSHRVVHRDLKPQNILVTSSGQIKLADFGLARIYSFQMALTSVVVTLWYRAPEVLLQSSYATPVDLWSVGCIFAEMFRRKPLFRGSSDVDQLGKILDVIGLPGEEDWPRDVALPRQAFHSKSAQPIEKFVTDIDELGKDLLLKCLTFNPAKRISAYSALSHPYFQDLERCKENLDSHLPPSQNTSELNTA
Serine/threonine-protein kinase N2, sequence (Q16513 whole entry): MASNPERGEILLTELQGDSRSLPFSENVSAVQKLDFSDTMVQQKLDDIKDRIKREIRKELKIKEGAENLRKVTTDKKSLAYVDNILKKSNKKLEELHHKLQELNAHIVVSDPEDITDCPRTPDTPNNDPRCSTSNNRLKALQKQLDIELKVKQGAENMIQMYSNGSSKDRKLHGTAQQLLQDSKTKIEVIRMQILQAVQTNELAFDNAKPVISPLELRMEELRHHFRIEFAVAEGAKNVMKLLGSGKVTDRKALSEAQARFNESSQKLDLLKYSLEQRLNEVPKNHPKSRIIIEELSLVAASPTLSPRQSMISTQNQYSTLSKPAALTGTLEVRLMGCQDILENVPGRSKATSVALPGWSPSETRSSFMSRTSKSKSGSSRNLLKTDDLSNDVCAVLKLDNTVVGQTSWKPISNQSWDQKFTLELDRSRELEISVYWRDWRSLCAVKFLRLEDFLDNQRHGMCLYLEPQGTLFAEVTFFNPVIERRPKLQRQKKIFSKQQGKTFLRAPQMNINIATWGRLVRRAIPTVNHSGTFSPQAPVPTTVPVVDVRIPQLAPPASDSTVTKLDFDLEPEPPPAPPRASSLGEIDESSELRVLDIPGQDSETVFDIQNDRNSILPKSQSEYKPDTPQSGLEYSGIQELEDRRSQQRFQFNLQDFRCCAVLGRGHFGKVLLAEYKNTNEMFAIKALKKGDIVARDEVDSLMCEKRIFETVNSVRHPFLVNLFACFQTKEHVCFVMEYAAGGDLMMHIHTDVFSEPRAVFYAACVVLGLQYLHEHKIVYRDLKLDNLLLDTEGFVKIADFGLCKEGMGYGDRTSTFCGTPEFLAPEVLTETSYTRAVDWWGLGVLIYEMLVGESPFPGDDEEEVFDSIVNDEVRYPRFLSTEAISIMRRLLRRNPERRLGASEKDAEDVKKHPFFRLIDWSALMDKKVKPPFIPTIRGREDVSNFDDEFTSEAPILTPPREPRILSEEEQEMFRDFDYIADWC

Compound	Kd [1]	Kd [2]	Kd [3]	Kd [4]	Kd [5]	Kd [6]	Kd [7]	Kd [8]	Kd [9]	Kd [10]	Kd [11]
COc1ccc(S(=O)(=O)N(C(C)=O)c2ccccc2/C=C/c2cc[n+]([O-])cc2)cc1 [HMN-214]	> 30 µM (inactive)	> 30 µM (inactive)	> 30 µM (inactive)	> 30 µM (inactive)	> 30 µM (inactive)	> 30 µM (inactive)	> 30 µM (inactive)	> 30 µM (inactive)	> 30 µM (inactive)	> 30 µM (inactive)	> 30 µM (inactive)
COc1cc2c(Nc3ccc(Cl)c(Cl)c3F)ncnc2cc1OC[C@@H]1C[C@@H]2CN(C)C[C@@H]2C1 [TESEVATINIB]	> 30 µM (inactive)	1.17 µM (active)	> 30 µM (inactive)	> 30 µM (inactive)	> 30 µM (inactive)	> 30 µM (inactive)	1.91 µM (active)	> 30 µM (inactive)	> 30 µM (inactive)	> 30 µM (inactive)	> 30 µM (inactive)
CO[C@H]1C[C@@H]2CC[C@@H](C)[C@@](O)(O2)C(=O)C(=O)N2CCCC[C@H]2C(=O)O[C@H]([C@H](C)C[C@@H]2CC[C@@H](OC(=O)C(C)(CO)CO)[C@H](OC)C2)CC(=O)[C@H](C)/C=C(\C)[C@@H](O)[C@@H](OC)C(=O)[C@H](C)C[C@H](C)/C=C/C=C/C=C/1C [TEMSIROLIMUS]	> 30 µM (inactive)	> 30 µM (inactive)	> 30 µM (inactive)	> 30 µM (inactive)	> 30 µM (inactive)	> 30 µM (inactive)	> 30 µM (inactive)	> 30 µM (inactive)	> 30 µM (inactive)	> 30 µM (inactive)	> 30 µM (inactive)
Cn1cnc2c(F)c(Nc3ccc(Br)cc3F)c(C(=O)NOCCO)cc21 [BINIMETINIB]	> 30 µM (inactive)	> 30 µM (inactive)	> 30 µM (inactive)	> 30 µM (inactive)	> 30 µM (inactive)	> 30 µM (inactive)	> 30 µM (inactive)	> 30 µM (inactive)	> 30 µM (inactive)	> 30 µM (inactive)	> 30 µM (inactive)
COc1c(OCCCN2CCOCC2)ccc2c1N=C(NC(=O)c1cnc(N)nc1)N1CCN=C21 [COPANLISIB]	> 30 µM (inactive)	> 30 µM (inactive)	> 30 µM (inactive)	> 30 µM (inactive)	> 30 µM (inactive)	> 30 µM (inactive)	> 30 µM (inactive)	> 30 µM (inactive)	> 30 µM (inactive)	> 30 µM (inactive)	> 30 µM (inactive)
O=c1[nH]ccc2cc(OC3CCNCC3)ccc12 [SAR-407899 FREE BASE]	> 30 µM (inactive)	> 30 µM (inactive)	> 30 µM (inactive)	> 30 µM (inactive)	> 30 µM (inactive)	> 30 µM (inactive)	> 30 µM (inactive)	> 30 µM (inactive)	0.008 µM (active)	> 30 µM (inactive)	> 30 µM (inactive)
CNC(=O)c1cccc2cc(Oc3ccnc4cc(OCC5(N)CC5)c(OC)cc34)ccc12 [LUCITANIB]	> 30 µM (inactive)	> 30 µM (inactive)	> 30 µM (inactive)	> 30 µM (inactive)	> 30 µM (inactive)	> 30 µM (inactive)	> 30 µM (inactive)	> 30 µM (inactive)	> 30 µM (inactive)	0.278 µM	> 30 µM (inactive)
C=CC(=O)Nc1cc2c(Nc3ccc(F)c(Cl)c3)ncnc2cc1C#CC(C)(C)N1CCN(C)CC1 [AV-412 FREE BASE]	> 30 µM (inactive)	> 30 µM (inactive)	> 30 µM (inactive)	> 30 µM (inactive)	> 30 µM (inactive)	> 30 µM (inactive)	28.6 µM (active)	> 30 µM (inactive)	> 30 µM (inactive)	> 30 µM (inactive)	> 30 µM (inactive)
